Consider two molecules from patent publication US20190223483A1, “SENSORY MODIFIER COMPOUNDS” (CARGILL, INCORPORATED, priority 2017, published 2019).

Assay [1] can be described thus: Roundtable assessment of sweetness linger (scale 0 to 6). The class given is in vivo. Also noted: key: 0 = none; 1 = trace/faint; 2 = slight; 3 = moderate; 4 = definite; 5 = strong; 6 = extreme. As to the method:
In some aspects, the amount of sensory modifier compound effective to […] can be determined by panel testing with trained panelists. For example, sweetness linger can be determined by the following test: For other sweetness attributes, the solutions were tested by a panel of at least four individuals that are highly-trained in tasting steviol glycoside solutions. The highly-trained panelists used a roundtable methodology to assess each sweetness attribute. To test each solution, the highly-trained panelists dispensed approximately 2 mL of each solution into their own mouths by transfer pipet, dispersed the solution by moving their tongues, and recorded a value for the particular sweetness attribute being tested. Between tasting solutions, the panelists were able to cleanse their palates with water. For each sweetness attribute, the panelist agreed on a descriptive scale with relative intensities assigned for each sweetness attribute and then recorded the values for each sweetness attribute against this. For example, this roundtable assessment of sweetness linger assigned a scale of 0 to 6 with a score of 0 indicating no sweetness linger and a score of 6 indicating extreme sweetness linger. Roundtable assessment of sweetness linger assigned a scale of 0 to 6 with a score of 0 indicating no sweetness linger and a score of 6 indicating extreme sweetness linger (0=none, 1=trace, 2=slight, 3=moderate, 4=definite, 5=strong, 6=extreme). Roundtable assessment of rounded assigned a scale of 0 to 3 with a score of 0 indicating spikey and a score of 3 indicating desirable rounded (0=none, 1=mostly spikey, some rounded, 2=mostly rounded, some spikey, 3=rounded). Roundtable assessment of mouthfeel assigned a scale of 0 to 2 with a score of 0 indicating water and a score of 2 indicating syrupy (0=water, 1=sucrosey, 2=syrupy). Roundtable assessment of bitterness assigned a scale of 0 to 6 with a score of 0 indicating no bitterness and a score of 6 indicating extreme sweetness linger (0=none, 1=trace, 2=slight, 3=moderate, 4=definite, 5=strong, 6=extreme). Roundtable assessment of off tastes assigned a scale of 0 to 6 with a score of 0 indicating no bitterness and a score of 6 indicating extreme off tastes (0=none, 1=trace, 2=slight, 3=moderate, 4=definite, 5=strong, 6=extreme). […] Roundtable assessment of botanical notes assigned a scale of 0 to 5 with a score of 0 indicating no botanical notes and a score of 5 indicating strong (0=none, 1=trace, 2=slight, 3=moderate, 4=definite, 5=strong). Exemplary tests are recorded below in Example 1.
For other sweetness attributes, the solutions were tested by a panel of at least four individuals that are highly-trained in tasting steviol glycoside solutions. The highly-trained panelists used a roundtable methodology to assess each sweetness attribute. To test each solution, the highly-trained panelists dispensed approximately 2 mL of each solution into their own mouths by transfer pipet, dispersed the solution by moving their tongues, and recorded a value for the particular sweetness attribute being tested. Between tasting solutions, the panelists were able to cleanse their palates with water. For each sweetness attribute, the panelist agreed on a descriptive scale with relative intensities assigned for each sweetness attribute and then recorded the values for each sweetness attribute against this. For example, this roundtable assessment of sweetness linger assigned a scale of 0 to 6 with a score of 0 indicating no sweetness linger and a score of 6 indicating extreme sweetness linger. Roundtable assessment of sweetness linger assigned a scale of 0 to 6 with a score of 0 indicating no sweetness linger and a score of 6 indicating extreme sweetness linger (0=none, 1=trace, 2=slight, 3=moderate, 4=definite, 5=strong, 6=extreme). […]

The nature of assay [2]: Sweetness intensity (SEV) by trained panel against 1%-14% sucrose standards. The class given is in vivo. The method, then:
In some aspects, the amount of sensory modifier compound effective to increase sweetness intensity can be determined by panel testing with trained panelists. For example, […] can be determined by the following test: Solutions were prepared by dissolving steviol glycosides and sensory modifier compounds into reverse osmosis water at the indicated concentrations and/or ratios. Solutions were tested by a panel of at least four individuals that are highly-trained in tasting steviol glycoside solutions. The highly-trained panelists were trained against a standard range of 1%, 2%, 3%, 4%, 5%, 6%, 7%, 8%, 9%, 10%, 11%, 12%, 13%, and 14% sucrose solutions corresponding to 1, 2, 3, 4, 5, 6, 7, 8, 9, 10, 11, 12, 13, and 14 SEV. To test each solution, the highly-trained panelists dispensed approximately 2 mL of each solution into their own mouths by transfer pipet, dispersed the solution by moving their tongues, and recorded an SEV value for each solution based on comparison to the 1%, 2%, 3%, 4%, 5%, 6%, 7%, 8%, 9%, 10%, 11%, 12%, 13%, and 14% sucrose solutions. Between tasting solutions, the panelists were able to cleanse their palates with water. […] For sweetness intensity, the panelists focused on, and only recorded, the sweetness intensity in SEV that they tasted while disregarding other attributes of the solution. At the highest concentrations of steviol glycoside and sensory modifier compound, the panelists found other attributes to be highly noticeable, but recorded the isolated sweetness intensity for each solution despite these other attributes. Exemplary tests are described below in Example 1.
All solutions were prepared by dissolving steviol glycosides and sensory modifier compounds into reverse osmosis water at the indicated concentrations and/or ratios.
For sweetness intensity, the solutions were tested by a panel of at least four individuals that are highly-trained in tasting steviol glycoside solutions. The highly-trained panelists were trained against a standard range of 1%, 2%, 3%, 4%, 5%, 6%, 7%, 8%, 9%, 10%, 11%, 12%, 13%, and 14% sucrose solutions corresponding to 1, 2, 3, 4, 5, 6, 7, 8, 9, 10, 11, 12, 13, and 14 SEV. To test each solution, the highly-trained panelists dispensed approximately 2 mL of each solution into their own mouths by transfer pipet, dispersed the solution by moving their tongues, and recorded an SEV value for each solution based on comparison to the 1%, 2%, 3%, 4%, 5%, 6%, 7%, 8%, 9%, 10%, 11%, 12%, 13%, and 14% sucrose solutions. Between tasting solutions, the panelists were able to cleanse their palates with water. […] For this example, the panelists focused on and only recorded the sweetness intensity in SEV that they tasted while disregarding other attributes of the solution. At the highest concentrations of steviol glycoside and sensory modifier compound, the panelists found other attributes to be highly noticeable, but recorded the isolated sweetness intensity for each solution despite these other attributes.

The mark [3] stands for this setting: steviol glycoside 700 ppm + yerba mate mono/dicaffeoylquinic acids 630 ppm.
Where [4] appears, read: steviol glycoside 700 ppm + yerba mate mono/dicaffeoylquinic acids 946 ppm.
Where [5] appears, read: steviol glycoside 700 ppm + yerba mate mono/dicaffeoylquinic acids […].
[6] abbreviates: steviol glycoside 700 ppm, sensory modifier 0 ppm.
Setting [7] is: steviol glycoside 700 ppm + yerba mate mono/dicaffeoylquinic acids 270 ppm.
[8] abbreviates: steviol glycoside 700 ppm + yerba mate mono/dicaffeoylquinic acids 540 ppm.
[9] abbreviates: steviol glycoside 700 ppm + yerba mate mono/dicaffeoylquinic acids 810 ppm.

`C=C1C[C@@]23CC[C@H]4[C@@](C)(CCC[C@@]4(C)C(=O)O[C@@H]4O[C@H](CO)[C@@H](O)[C@H](O)[C@H]4O)[C@@H]2CC[C@]1(O[C@@H]1O[C@H](CO)[C@@H](O)[C@H](O[C@@H]2O[C@H](CO)[C@@H](O)[C@H](O)[C@H]2O)[C@H]1O[C@@H]1O[C@H](CO)[C@@H](O)[C@H](O)[C@H]1O)C3` [RebA, Rebaudioside A]: the Sweetness linger result in assay [1] (setting [3]), in assay [1] (setting [4]), in assay [1] (setting [5]) and in assay [1] (setting [6]) was “Not observed” throughout. The SEV in assay [2] (setting [3]), in assay [2] (setting [4]), in assay [2] (setting [5]) and in assay [2] (setting [6]) was 7 each time.
As for `C=C1C[C@@]23CC[C@H]4[C@@](C)(CCC[C@@]4(C)C(=O)O[C@@H]4O[C@H](CO)[C@@H](O)[C@H](O)[C@H]4O[C@@H]4O[C@H](CO)[C@@H](O)[C@H](O)[C@H]4O)[C@@H]2CC[C@]1(O[C@@H]1O[C@H](CO)[C@@H](O)[C@H](O[C@@H]2O[C@H](CO)[C@@H](O)[C@H](O)[C@H]2O)[C@H]1O[C@@H]1O[C@H](CO)[C@@H](O)[C@H](O)[C@H]1O)C3` [RebD, Rebaudioside D], the Sweetness linger in assay [1] (setting [7]) was 3; in assay [1] (setting [8]), 2; in assay [1] (setting [9]), 1; in assay [1] (steviol glycoside 700 ppm, about 200 ppm sensory modifier) it was “reduced to commercially palatable levels”; in assay [1] (setting [6]), 3. Moreover, the SEV in assay [2] (setting [7]) turned out to be 8.5; in assay [2] (setting [8]) it was 8.5; in assay [2] (setting [9]), 8.5; in assay [2] (setting [6]) it was 8.
